Results as given in patent publication US8178506B2, “Oligomeric compounds and compositions for use in modulation of small non-coding RNAs” (Regulus Therapeutics Inc., priority 2003, dated 2012).
In the oligonucleotide strings, read from the 5' end, every base follows the letter of its sugar. An asterisk marks phosphorothioate; unmarked linkages are phosphodiester. Other units and linkages are bracketed, terminal groups are in braces. A string of capitals states the bases alone. e = 2'-O-(2-methoxyethyl) (MOE); [5mC] = 5-methylcytosine; d = 2'-deoxy (DNA)

Assays:
[1] = tested on: T47D cells; assay: Cell cycle assay in T47D cells; assay type: cell-based, human; conditions: 150 nM, 48 hours, relative to untreated control
[2] = tested on: T47D cells; assay: Caspase-3 activity assay (apoptosis) in T47D cells; conditions: T47D cells, 200 nM, 48 hours, relative to untreated control
[3] = tested on: differentiated adipocytes; assay: Hallmark genes and triglycerides in differentiated adipocytes; assay type: cell-based, human; conditions: 250 nM, transfected day nine, measured 12th day post differentiation
From the text: The effect of the oligomeric compounds of the present invention targeting miRNAs on the expression of markers of cellular differentiation was examined in differentiated adipocytes.
As previously described, the HSL, aP2, Glut4, and PPARγ genes play important rolls in the uptake of glucose and the metabolism and utilization of fats. Also as previously described, an increase in triglyceride content is another well-established marker for adipocyte differentiation. Human white preadipocytes (Zen-Bio Inc., Research Triangle Park, N.C.) were grown in preadipocyte media (ZenBio Inc.). After the cells reached confluence (approximately three days), they were exposed to differentiation media (Zen-Bio, Inc.) containing a PPAR-γ agonist, IBMX, dexamethasone, and insulin for three days. Cells were then fed Adipocyte Medium (Zen-Bio, Inc.), which was replaced at 2 to 3 day intervals. One day before transfection, 96-well plates were seeded with 3000 cells/well. Cells were then transfected on day nine post-differentiation, according to standard published procedures with 250 nM oligonucleotide in LIPOFECTIN™ (Invitrogen Corporation, Carlsbad, Calif.) (Monia et al., J. Biol. Chem. 1993 268(19):14514-22). Oligomeric compounds were tested in triplicate on each 96-well plate, and the effect of TNF-α, known to inhibit adipocyte differentiation, was also measured in triplicate. Oligomeric compound treatments and transfectant-only negative controls may be measured up to six times per plate. On day twelve post-differentiation, cells were washed and lysed at room temperature, and the expression of the four hallmark genes, HSL, aP2, Glut4, and PPARγ, as well as triglyceride (TG) accumulation were measured in adipocytes transfected with the uniform 2′-MOE phosphorothioate (PS) previously described in Example 13 as well as the chimeric gapmer oligomeric compounds targeting the mir-143 miRNA and the mir-143 pri-miRNA described in Example 16. On day twelve post-differentiation, cells were lysed in a guanadinium-containing buffer and total RNA was harvested. The amount of total RNA in each sample was determined using a Ribogreen Assay (Molecular Probes, Eugene, Oreg.). Real-time PCR was performed on the total RNA using primer/probe sets for the adipocyte differentiation hallmark genes Glut4, HSL, aP2, and PPARγ. Triglyceride levels as well as mRNA levels for each of the four adipocyte differentiation hallmark genes are expressed relative to control levels (control=treatment with ISIS-29848 (SEQ ID NO: 737)).

328403 (antisense eA*eG*eG*e[5mC]*e[5mC]*dT*dA*dT*dT*d[5mC]*d[5mC]*dT*dG*dT*dA*eG*e[5mC]*eA*eA*eA) [compound 328403]
% cells in cell cycle phase G1 [1]: 104%
% cells in cell cycle phase G2/M [1]: 89%
% cells in cell cycle phase S [1]: 112%
% cells in cell cycle phase aneuploid [1]: 175%
% cells in cell cycle phase subG1 [1]: 49%
Fold Increase over UTC (caspase activity) [2]: 1.0

CTAGTGGTCCTAAACATTTCAC (chemistry not given here) [ISIS 327878, uniform 2′-MOE PS; targets mir-203]
expression of hallmark marker genes in differentiated adipocytes [3]: decreased expression of the aP2, HSL, Glut4 and PPARγ marker genes
